# Experimental data taken from the METLIN SMRT retention time set (Domingo-Almenara et al. 2019).
# Test: gradient 5% acetonitrile 3 min, to 50% in 2 min, to 85% in 15 min, held 3 min, 100 µL/min
# Details: column: Zorbax Extend-C18 2.1 x 50 mm; eluents: water / acetonitrile, 0.1% formic acid
# Method in brief: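 Data were gathered over 3 months by HPLC coupled to a quadrupole time-of-flight mass spectrometer, operated in positive and negative ionization mode. Mixtures of ~100 pure standards ran on a Zorbax Extend-C18 column (2.1 × 50 mm, 1.8 μm) at 100 μL/min, with water and acetonitrile each containing 0.1% formic acid and dead and dwell volumes of 40 μL and 900 μL. Retention time was read from adduct peaks picked by computer and checked manually.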
row,Structure (SMILES),RP-LC retention time [s]
1,Cc1ccc(-c2ccc(-n3nc(C)c(S(=O)(=O)NCc4ccc5c(c4)OCO5)c3C)nn2)cc1,1020
2,O=C(COc1ccc(Cl)cc1)Oc1ccc2nc(N3CCOCC3)sc2c1,971
3,Cc1nnc(-c2cc(NC(=O)c3ccc(F)cc3Cl)c(C)s2)o1,865
4,Cc1ccc(NS(=O)(=O)c2ccc(-c3c(C)noc3C)cc2)cc1F,964
5,CN(C)c1ccc(Nc2nc(-c3ccccc3)cs2)cc1,705
6,COc1ccccc1NC(=O)C1CCN(c2cc(N3CCCCC3)ncn2)CC1,700
7,CCNc1cc(N2CCC(CCC(=O)N3CCCC3)CC2)ncn1,608
8,CCCCC(=O)Nc1ccc2c(c1)nc(CN1CCN(C)CC1)n2C(C)C,575
9,CC1CCN(Cc2csc(N3CCN(C(=O)CSc4ccccc4)CC3)n2)CC1,1130
10,CC(=O)N1CCc2ccc(C(=O)N3CCOCC3)cc21,602
11,CC(C)Cc1cc(-c2nn3c(CSc4ccccc4)nnc3s2)n[nH]1,948
12,CC(C)CCCC(C)N (stereo not given),641
13,CCCCOc1ccc(S(=O)(=O)Nc2ccc(-c3cn4ccc(C)nc4n3)cc2)cc1,776
14,COc1cc2c(cc1CNC(=O)COc1ccc(Br)cc1)OCCCO2,957
15,CCc1ccccc1NC(=O)C1(C)Oc2cccnc2N(C(C)C)C1=O (stereo not given),1010
16,O=C(Cc1csc2nc(-c3ccccc3)cn12)Nc1ccc(C(F)(F)F)cc1,922
17,O=C(Cn1nc2c3cc(-c4ccccc4)nn3ccn2c1=O)Nc1ccccc1Cl,902
18,O=C(CC1CCCC1)N1CCCCC1c1nncn1CC1CC1 (stereo not given),781
19,Cc1ccc(-c2ccc(=O)n(CCCC(=O)Nc3ccc(-c4ccc(=O)[nH]n4)cc3)n2)cc1,678
20,CCc1nc2ccccc2c(=O)n1Cc1noc(-c2cccc(OC)c2OC)n1,872
21,CSc1ccc(NC(=O)NC2CCN(c3cc(C)cc(C)c3)C2=O)cc1 (stereo not given),916

row,Structure (SMILES),RP-LC retention time [s]
1,CC1(O)CCOC2(CCN(Cc3cn[nH]c3-c3ccccc3)CC2)C1 (stereo not given),584
2,O=C([C@@H]1C[C@H](F)CN1S(=O)(=O)c1cccc(F)c1)N1CCc2ccccc2C1,920
3,Cc1ccc(CNC(=O)C2(C)CCCN(C(=O)Nc3ccc(C)c(Cl)c3)C2)cc1 (stereo not given),1110
4,COc1cc(-c2nc3ncccn3c2Nc2ccc3c(c2)OCO3)ccc1O,621
5,CS(=O)(=O)N1CCCC1C(=O)Nc1ccc(F)cc1 (stereo not given),693
6,Cn1c(=O)c(NCCc2c[nH]c3ccccc23)nc2ccncc21,619
7,CN1CCN(C(CNC(=O)c2ccc3c(c2)OCO3)c2ccc3c(c2)OCO3)CC1 (stereo not given),614
8,CCc1nc(OCC(=O)NCc2cccc(C)c2)c2c(C)c(C)oc2n1,947
9,COC(=O)c1c(NCc2ccco2)c2cccc(Cl)c2[nH]c1=O,740
10,CCC1(c2ccccc2)NC(=O)N(C)C1=O (stereo not given),794
11,COC1CCC12CCN(C(=O)c1ccoc1)CC2 (stereo not given),723
12,Cc1[nH]c(-c2ccc(Cl)cc2)cc1C(=O)NC1CCCC1,947
13,Cc1cccc(NS(=O)(=O)c2cc(-c3[nH]ncc3C(=O)N(C)C)oc2C)c1C,712
14,COc1cc2ncc(-c3ccccc3)nc2cc1OC,1020
15,CCCN1CCN(C(=O)C2CCCN(S(=O)(=O)c3cc(-c4noc(C)n4)cs3)C2)CC1 (stereo not given),638
16,CN(C)S(=O)(=O)c1ccc(-c2nnc(C(=O)NCCN3CCc4ccccc4C3)o2)cc1,642
17,COCCCNC(=O)N1CCN(Cc2nc3cccnc3n2-c2cc(C)cc(C)c2)CC1,650
18,Cc1ccc(C2=NC3(CCN(C(=O)Nc4cccc(C)c4)CC3)NC2=O)cc1,851
19,O=C(NC1CC1)[C@@H]1C[C@H](Oc2ccccc2)CN1C(=O)CCCc1c[nH]c2ccccc12,834
20,O=C(/C=C/c1ccc(CN(CCO)CCc2c[nH]c3ccccc23)cc1)NO,622
21,COc1ccc(-c2nc(C)c3c(n2)N(C(C)C)C(=O)C3)cc1,929

row,Structure (SMILES),RP-LC retention time [s]
1,COc1ccc(CNC(=O)N2CCC(COCc3ccccc3)CC2)cc1OC,814
2,COCCOCc1nc(C2CCN(S(=O)(=O)c3cc(F)ccc3F)CC2)no1,806
3,Cc1ccc(-c2noc(C3CCCN3C(=O)c3ccc(CS(=O)(=O)c4ccccc4)cc3)n2)cc1 (stereo not given),1010
4,O=C(Nc1ccc2c(c1)OCCO2)N1CCN(Cc2ccccc2)c2ncccc21,731
5,CCOC1CCOC2(CCN(C(=O)c3ccco3)CC2)C1 (stereo not given),691
6,CC1CCCN(c2ccn3c(=O)n(CC(=O)Nc4ccc(F)c(Cl)c4)nc3n2)C1 (stereo not given),834
7,COCc1nnc(C(=O)Nc2cccc(C(=O)NCCc3c[nH]c4ccc(Cl)cc34)c2)s1,896
8,Cc1ccc(Cc2nc(-c3ccc(-n4ccnc4)nc3)no2)cc1,759
9,COc1ccc2nc(C(=O)NC3CCCCCC3)cn2n1,878
10,O=C(Nc1cccc(N2CCCCC2=O)c1)c1ccc(Br)o1,680
11,CCN1C(=O)c2cc(C(=O)Nc3ccc(C)cc3C)nn2CC1(C)C(=O)NC1CCCC1 (stereo not given),800
12,Cc1ccc2[nH]cc(CCN3CC(C(=O)Nc4ccc(C)c(C)c4)CC3=O)c2c1 (stereo not given),910
13,O=C(c1csc(-c2ccc(N3CCCC3)nc2)n1)N1CCCCC1,613
14,CCN(C(=O)C1CCN(S(=O)(=O)c2ccc3c(c2)NC(=O)CO3)CC1)c1ccccc1,794
15,O=C(Cn1c(=O)cc(-c2nc(C3CC3)no2)c2ccccc21)NCCC1=CCCCC1,1110
16,CCOc1ccc(NC(=O)c2c(O)c3cccnc3n(-c3ccccc3)c2=O)cc1,1270
17,O=C(Nc1ccc(Cl)cc1)N1CCCC(c2nnc(Cc3ccc(F)cc3)o2)C1 (stereo not given),877
18,COc1cc2ncc(C#N)c(N3CCC(C(=O)Nc4cccc(Cl)c4)CC3)c2cc1OC,816
19,Cc1ccccc1-c1csc(Cc2nc(-c3ccc(Cl)cc3)no2)n1,1330

# Now from value to compound:
row,RP-LC retention time [s],Structure (SMILES)
1,691,CCCCN1CCC(F)(c2nc(-c3ccccc3)no2)CC1
2,697,O=C(Nc1cccc(F)c1)Nc1cccc(-c2ccc(N3CCOCC3)nn2)c1
3,841,Cn1ncc2c(N3CCSCC3)nc(C(=O)N3CCN(c4ccc(F)cc4)CC3)nc21
4,810,CCOc1ccc(-c2csc(NC(=O)CCCOc3ccc(Cl)cc3)n2)cc1
5,945,Cc1ccc(N2CCC(NC(=O)Nc3cccc(C)c3C)C2=O)cc1 (stereo not given)
6,661,O=C(NCc1cccs1)C1CCCN(c2cnc3nccnc3c2)C1 (stereo not given)
7,1000,CN(C)S(=O)(=O)c1cccc(-c2nnc(-c3ccc(Cl)cc3)o2)c1
8,774,CCn1cnc2ccc(-c3noc(Cc4ccc(Cl)cc4)n3)cc21
9,549,Cc1[nH]c(=O)[nH]c(=O)c1CC(=O)Nc1cccc(NS(C)(=O)=O)c1
10,713,Cc1ccc(S(=O)(=O)Nc2ccc(-c3cn4cccnc4n3)cc2)cc1[N+](=O)[O-]
11,994,Fc1ccc(Cn2cc(-c3noc(-c4ccccc4)n3)nn2)cc1
12,874,Cc1ccc(N2CC(c3nc(-c4ccc(CNC(=O)C5CC5)s4)no3)CC2=O)cc1C (stereo not given)
13,692,Cc1ccc2c(=O)c(C(=O)N3CCCC3)cn(CC(=O)Nc3ccc(F)cc3F)c2n1
14,996,CN(C)S(=O)(=O)c1ccc2c(c1)N(CC(=O)NCCC1=CCCCC1)C(=O)C1CCCCN21 (stereo not given)
15,1060,CCn1cc(C(=O)NCCCOC(C)C)c(S(=O)(=O)N2CCN(c3cccc(Cl)c3)CC2)n1
16,627,O=C(NCc1ccccc1)C1(CCO)CC12CCOCC2 (stereo not given)
17,723,COc1cc2nc(C(=O)N3CCCCC3)cc(Nc3cccc(SC)c3)c2cc1OC
18,864,Cc1ccc(C)c(NS(=O)(=O)c2cc3c(s2)CCN(C(=O)C2CC2)C3)c1
19,783,COc1ccc(C(=O)Nc2c(C(=O)Nc3ccccc3OC)oc3cccnc23)cc1
20,1060,COC(=O)c1ccc2c(=O)n(-c3ccc(Cl)cc3)c(N3CCCC3)nc2c1
21,1090,COc1ccc(Cl)cc1NC(=O)Nc1ccc2c(c1)CCN2S(=O)(=O)c1ccccc1
22,1170,COc1cccc(C(=O)COc2cc(O)c3c(=O)cc(-c4ccccc4)oc3c2)c1
23,702,O=C1c2ccccc2C(O)(c2ccccc2)N1c1ccncc1 (stereo not given)
24,752,O=C(NC1CCN(c2cc(-c3cccs3)[nH]n2)C1)c1ccc(F)c(F)c1 (stereo not given)
25,823,CN1c2cc(C(=O)N3CCN(c4ccccc4)CC3)ccc2C(=O)N2CCCCC21 (stereo not given)
26,1210,COc1ccc(CCc2nc(-c3ccc4oc(C)nc4c3)no2)cc1
27,775,CCNC(=O)CCc1nc2ccccc2n(CC(=O)Nc2ccccc2OCC)c1=O
28,993,CC(C)Cn1cc(CCNS(=O)(=O)c2ccc(Cl)cc2)c2cccnc21
29,767,Cc1nnc(-c2cccn2CC(=O)NCc2cccc(Br)c2)o1
